# Source: patent US20130079408A1, “PERACID AND 2-HYDROXY ORGANIC ACID COMPOSITIONS AND METHODS FOR TREATING ITEMS” (Fresh Express Incorporated, priority 2009, published 2013)
# Experiments:
# [1] = tested on: indigenous microorganisms (Aerobic Plate Counts); assay type: cell-based
# [2] = tested on: Pseudomonas aeruginosa (ATCC 9027); test: Non-food surface coupon test (Example 6); assay type: cell-based; conditions: 90 sec residence time
# [3] = 40 C; cited from earlier work
# [4] = tested on: Listeria innocua ATCC 33090; test: Suspended cells challenge test at 20 s residence time, no surfactant (Example 2); assay type: cell-based; conditions: Peroxyacetic acid 0 ppm
# Listeria innocua = test: Attached cells challenge test on produce leaves (Example 1); assay type: cell-based; conditions: PAA 0 ppm, 45 F, 45 s
# [5] = tested on: Lactobacillus plantarum 14917; test: Suspended cells challenge test at 20 s residence time, no surfactant (Example 2); assay type: cell-based; conditions: Peroxyacetic acid 0 ppm
# E. coli K12 = test: Attached cells challenge test on produce leaves (Example 1); assay type: cell-based; conditions: PAA 0 ppm, 45 F, 45 s
compound,measurement,setting,value
"CC(=O)OO [Peroxyacetic acid, peroxyacetic acid]",Aerobic Plate Counts Log Reduction,[1],0.7 Log cfu/g
same,Aerobic Plate Counts after wash,[1],2.7 Log cfu/g
same,log10 reduction of indigenous microorganism on the Romaine leaf,[1],0.7 log10
same,"Log reductions, attached on glass coupons","[2]; PA 60 ppm, LA 0 ppm",0.2
same,"Log reductions, attached on plastic coupons","[2]; PA 60 ppm, LA 0 ppm",1.2
same,"Log reductions, attached on stainless steel coupons","[2]; PA 60 ppm, LA 0 ppm",1.5
same,"Log reductions, attached on glass coupons","[2]; PA 80 ppm, LA 0 ppm",0.0
same,"Log reductions, attached on plastic coupons","[2]; PA 80 ppm, LA 0 ppm",0.9
same,"Log reductions, attached on stainless steel coupons","[2]; PA 100 ppm, LA 0 ppm",1.4
same,"Log reductions, attached on wood coupons","[2]; PA 100 ppm, LA 0 ppm",1.0
same,"Log reductions, attached on wood coupons","[2]; PA 140 ppm, LA 0 ppm",0.8
same,apparent equilibrium constant Kap,[3],about 2.21
"CC(O)C(=O)O (centres unmarked) [Lactic acid, lactic acid]",log reduction of suspended Listeria innocua cells,[4]; Lactic Acid 2000 ppm,0.08
same,log reduction of suspended Listeria innocua cells,[4]; Lactic Acid 2500 ppm,0.19
same,log reduction of suspended Listeria innocua cells,[4]; Lactic Acid 3000 ppm,0.05
same,"Attached Listeria, Romaine",Listeria innocua; LA 0.6%,1.1
same,"Attached Listeria, Spinach",Listeria innocua; LA 0.6%,0.1
same,"Attached Listeria, Romaine",Listeria innocua; LA 0.9%,1.4
same,"Attached Listeria, Spinach",Listeria innocua; LA 0.9%,0.2
same,"Attached Listeria, Romaine",Listeria innocua; LA 1.2%,1.5
same,"Attached Listeria, Spinach",Listeria innocua; LA 1.2%,0.2
same,log reduction of suspended Lactobacillus plantarum cells,[5]; Lactic Acid 2000 ppm,0.00
same,log reduction of suspended Lactobacillus plantarum cells,[5]; Lactic Acid 2500 ppm,0.02
same,log reduction of suspended Lactobacillus plantarum cells,[5]; Lactic Acid 3000 ppm,0.01
same,"Log reductions, attached on glass coupons","[2]; PA 0 ppm, LA 1,250 ppm",0.4
same,"Log reductions, attached on stainless steel coupons","[2]; PA 0 ppm, LA 1,250 ppm",1.6
same,"Log reductions, attached on glass coupons","[2]; PA 0 ppm, LA 2,500 ppm",1.7
same,"Log reductions, attached on plastic coupons","[2]; PA 0 ppm, LA 2,500 ppm",0.6
same,"Log reductions, attached on stainless steel coupons","[2]; PA 0 ppm, LA 2,500 ppm",1.9
same,"Log reductions, attached on wood coupons","[2]; PA 0 ppm, LA 2,500 ppm",1.4
same,"Log reductions, attached on plastic coupons","[2]; PA 0 ppm, LA 5,000 ppm",1.2
same,"Log reductions, attached on wood coupons","[2]; PA 0 ppm, LA 7,500 ppm",3.6
same,"Attached E. Coli, Romaine",E. coli K12; LA 0.6%,0.24
same,"Attached E. Coli, Spinach",E. coli K12; LA 0.6%,0.09
same,"Attached E. Coli, Romaine",E. coli K12; LA 0.9%,0.37
same,"Attached E. Coli, Spinach",E. coli K12; LA 0.9%,0.42
same,"Attached E. Coli, Romaine",E. coli K12; LA 1.2%,1.28
same,"Attached E. Coli, Spinach",E. coli K12; LA 1.2%,0.81
